Source: PubChem BioAssay (NCI)
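In this assay, cells in 96-well plates receive the compound at five concentrations for 48 hours. Endpoints are linearly interpolated between the surrounding concentrations. The concentration for full growth arrest is given as TGI.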

Key:
Assay in all cases: NCI tumour cell line growth inhibition, 48 h
EKVX NSCLC = system: EKVX NSCLC
HL-60(TB) leukemia = system: HL-60(TB) leukemia
HCC-2998 colon = system: HCC-2998 colon
SK-MEL-2 melanoma = system: SK-MEL-2 melanoma
HT29 colon = system: HT29 colon
IGROV1 ovarian = system: IGROV1 ovarian
SK-MEL-5 melanoma = system: SK-MEL-5 melanoma
SW-620 colon = system: SW-620 colon
COLO 205 colon = system: COLO 205 colon
XF 498 CNS = system: XF 498 CNS
SN12C renal = system: SN12C renal
M19-MEL melanoma = system: M19-MEL melanoma
HCT-116 colon = system: HCT-116 colon
KM12 colon = system: KM12 colon
OVCAR-5 ovarian = system: OVCAR-5 ovarian
SNB-75 CNS = system: SNB-75 CNS
ACHN renal = system: ACHN renal
RPMI-8226 leukemia = system: RPMI-8226 leukemia
DLD-1 colon = system: DLD-1 colon
LOX IMVI melanoma = system: LOX IMVI melanoma
SR leukemia = system: SR leukemia
SK-OV-3 ovarian = system: SK-OV-3 ovarian
A549 NSCLC = system: A549 NSCLC
NCI-H522 lung = system: NCI-H522 lung
SF-268 CNS = system: SF-268 CNS
MALME-3M melanoma = system: MALME-3M melanoma
HCT-15 colon = system: HCT-15 colon
LXFL 529 NSCLC = system: LXFL 529 NSCLC
OVCAR-8 ovarian = system: OVCAR-8 ovarian
NCI-H460 lung = system: NCI-H460 lung
DMS 273 small cell lung = system: DMS 273 small cell lung
SNB-19 CNS = system: SNB-19 CNS
UO-31 renal = system: UO-31 renal
TK-10 renal = system: TK-10 renal
RXF 393 renal = system: RXF 393 renal
NCI-H23 lung = system: NCI-H23 lung
M14 melanoma = system: M14 melanoma
CAKI-1 renal = system: CAKI-1 renal
UACC-62 melanoma = system: UACC-62 melanoma
OVCAR-3 ovarian = system: OVCAR-3 ovarian
KM20L2 colon = system: KM20L2 colon
MOLT-4 leukemia = system: MOLT-4 leukemia
786-0 renal = system: 786-0 renal
SK-MEL-28 melanoma = system: SK-MEL-28 melanoma
SF-295 CNS = system: SF-295 CNS
UACC-257 melanoma = system: UACC-257 melanoma
HOP-62 NSCLC = system: HOP-62 NSCLC
OVCAR-4 ovarian = system: OVCAR-4 ovarian
K-562 leukemia = system: K-562 leukemia
U251 CNS = system: U251 CNS
CCRF-CEM leukemia = system: CCRF-CEM leukemia
MCF7 breast = system: MCF7 breast
MDA-MB-231 breast = system: MDA-MB-231 breast
BT-549 breast = system: BT-549 breast
SF-539 CNS = system: SF-539 CNS
T-47D breast = system: T-47D breast
NCI/ADR-RES ovarian = system: NCI/ADR-RES ovarian
PC-3 prostate = system: PC-3 prostate
MDA-N = system: MDA-N
HOP-92 NSCLC = system: HOP-92 NSCLC
HS 578T breast = system: HS 578T breast
MDA-MB-435 = system: MDA-MB-435
DU-145 prostate = system: DU-145 prostate
NCI-H226 lung = system: NCI-H226 lung

Work on `CC1OC(OP(=O)(OCc2ccccc2)OCc2ccccc2)C(OC(=O)c2ccccc2)C(OC(=O)c2ccccc2)C1I` (centres undefined) yielded a TGI (EKVX NSCLC) greater than 100 µM, a TGI (HL-60(TB) leukemia) of 49.4 µM and a TGI (HCC-2998 colon) greater than 100 µM. It also gave a TGI (SK-MEL-2 melanoma) greater than 100 µM, a TGI (HT29 colon) greater than 100 µM and a TGI (IGROV1 ovarian) greater than 100 µM. The TGI (SK-MEL-5 melanoma) was greater than 100 µM, the TGI (SW-620 colon) was greater than 100 µM and the TGI (COLO 205 colon) was 84.8 µM. For the same compound, the TGI (XF 498 CNS) was greater than 100 µM, the TGI (SN12C renal) was 52.5 µM and the TGI (M19-MEL melanoma) was greater than 100 µM. It also gave a TGI (HCT-116 colon) greater than 100 µM, a TGI (KM12 colon) greater than 100 µM and a TGI (OVCAR-5 ovarian) greater than 100 µM. It also gave a TGI (SNB-75 CNS) of 68.1 µM, a TGI (ACHN renal) greater than 100 µM and a TGI (RPMI-8226 leukemia) of 97.8 µM. For the same compound, the TGI (DLD-1 colon) was greater than 100 µM, the TGI (LOX IMVI melanoma) was greater than 100 µM and the TGI (SR leukemia) was 80.7 µM. The TGI (SK-OV-3 ovarian) was greater than 100 µM, the TGI (A549 NSCLC) was greater than 100 µM and the TGI (NCI-H522 lung) was 88.2 µM. The TGI (SF-268 CNS) was greater than 100 µM, the TGI (MALME-3M melanoma) was greater than 100 µM and the TGI (HCT-15 colon) was greater than 100 µM. The TGI (LXFL 529 NSCLC) was greater than 100 µM, the TGI (OVCAR-8 ovarian) was greater than 100 µM and the TGI (NCI-H460 lung) was greater than 100 µM. The TGI (DMS 273 small cell lung) was greater than 100 µM, the TGI (SNB-19 CNS) was greater than 100 µM and the TGI (UO-31 renal) was greater than 100 µM. For the same compound, the TGI (TK-10 renal) was greater than 100 µM, the TGI (RXF 393 renal) was 76.9 µM and the TGI (NCI-H23 lung) was greater than 100 µM. It also gave a TGI (M14 melanoma) greater than 100 µM, a TGI (CAKI-1 renal) greater than 100 µM and a TGI (UACC-62 melanoma) greater than 100 µM. It also gave a TGI (OVCAR-3 ovarian) greater than 100 µM, a TGI (KM20L2 colon) greater than 100 µM and a TGI (MOLT-4 leukemia) of 59.1 µM. The TGI (786-0 renal) was greater than 100 µM, the TGI (SK-MEL-28 melanoma) was greater than 100 µM and the TGI (SF-295 CNS) was greater than 100 µM. For the same compound, the TGI (UACC-257 melanoma) was greater than 100 µM, the TGI (HOP-62 NSCLC) was greater than 100 µM and the TGI (OVCAR-4 ovarian) was greater than 100 µM. It also gave a TGI (K-562 leukemia) greater than 100 µM, a TGI (U251 CNS) greater than 100 µM and a TGI (CCRF-CEM leukemia) greater than 100 µM.

In the case of `CC(=O)C1=CC=C/C1=N\Nc1ccccc1`, the TGI (EKVX NSCLC) is reported as 23 µM, the TGI (HL-60(TB) leukemia) is reported as 5.5 µM and the TGI (HCC-2998 colon) is reported as 20.5 µM. The TGI (SK-MEL-2 melanoma) was 27.7 µM, the TGI (HT29 colon) was 11.5 µM and the TGI (MCF7 breast) was 5.68 µM. For the same compound, the TGI (MDA-MB-231 breast) was 24.2 µM, the TGI (IGROV1 ovarian) was 21.3 µM and the TGI (SK-MEL-5 melanoma) was 29.8 µM. For the same compound, the TGI (SW-620 colon) was 15.6 µM, the TGI (BT-549 breast) was 27.4 µM and the TGI (SF-539 CNS) was 8.64 µM. For the same compound, the TGI (COLO 205 colon) was 22.9 µM, the TGI (SN12C renal) was 22.7 µM and the TGI (HCT-116 colon) was 17.5 µM. For the same compound, the TGI (KM12 colon) was 15.5 µM, the TGI (OVCAR-5 ovarian) was 19.7 µM and the TGI (SNB-75 CNS) was 24.6 µM. For the same compound, the TGI (ACHN renal) was 23.4 µM, the TGI (RPMI-8226 leukemia) was 7.75 µM and the TGI (T-47D breast) was 18.3 µM. It also gave a TGI (LOX IMVI melanoma) of 9.02 µM, a TGI (SR leukemia) of 4.95 µM and a TGI (SK-OV-3 ovarian) of 30.7 µM. For the same compound, the TGI (A549 NSCLC) was 35.1 µM, the TGI (NCI-H522 lung) was 19.1 µM and the TGI (SF-268 CNS) was 23.8 µM. For the same compound, the TGI (MALME-3M melanoma) was 28.4 µM, the TGI (HCT-15 colon) was 19.2 µM and the TGI (OVCAR-8 ovarian) was 64.4 µM. For the same compound, the TGI (NCI/ADR-RES ovarian) was greater than 100 µM, the TGI (NCI-H460 lung) was 38.7 µM and the TGI (SNB-19 CNS) was 47.6 µM. The TGI (PC-3 prostate) was 18.7 µM, the TGI (MDA-N) was 19.2 µM and the TGI (UO-31 renal) was 25.8 µM. For the same compound, the TGI (TK-10 renal) was 18.6 µM, the TGI (RXF 393 renal) was 34.5 µM and the TGI (NCI-H23 lung) was 26.6 µM. For the same compound, the TGI (M14 melanoma) was 22.7 µM, the TGI (CAKI-1 renal) was 11.8 µM and the TGI (UACC-62 melanoma) was 28.7 µM. The TGI (OVCAR-3 ovarian) was 9.57 µM, the TGI (MOLT-4 leukemia) was 29.6 µM and the TGI (786-0 renal) was 15.4 µM. The TGI (SK-MEL-28 melanoma) was 27 µM, the TGI (SF-295 CNS) was 28.2 µM and the TGI (UACC-257 melanoma) was 33.5 µM. The TGI (HOP-62 NSCLC) was 50.9 µM, the TGI (HOP-92 NSCLC) was 27.3 µM and the TGI (OVCAR-4 ovarian) was 20.1 µM. The TGI (K-562 leukemia) was 20.5 µM, the TGI (HS 578T breast) was 34.9 µM and the TGI (MDA-MB-435) was 27.4 µM. The TGI (DU-145 prostate) was 28.2 µM, the TGI (NCI-H226 lung) was 39.8 µM and the TGI (U251 CNS) was 9.36 µM. It also gave a TGI (CCRF-CEM leukemia) of 11.2 µM.
